Measured values: ChEMBL document CHEMBL5537150, “Synthesis of melampomagnolide B derivatives as potential anti-Triple Negative Breast Cancer agents” (Eur J Med Chem, 2024)
Calls of active or inactive are those of the source. The rule behind the calls is not given here.

Assays:
MDA-MB-231 [1] = assay: Induction of apoptosis in human MDA-MB-231 cells assessed as downregulation of BCL-xl protein expression incubated for 48 hrs by Western blotting analysis; format: functional, cell-based
MDA-MB-468 [2] = assay: Antimigratory activity in human MDA-MB-468 cells assessed as downregulation of Vimentin protein expression incubated for 48 hrs by Western blotting analysis; format: functional, cell-based
MDA-MB-231 [3] = assay: Induction of apoptosis in human MDA-MB-231 cells at 0.5 uM incubated for 48 hrs by annexin-V-APC/PI staining based flow cytometric analysis (reference value: 1.81 +/- 0.47 %); format: functional
4T1 [4] = assay: Antitumor activity against mouse 4T1 cells implanted in Balb/c mouse assessed as decrease in spleen weight at 10 mg/kg,ip administrated every two days for 20 days; format: functional, organism-based; conditions: time 20.0 day
MDA-MB-231 [5] = assay: Inhibition of NF-kappaB signalling pathway in human MDA-MB-231 cells assessed as upregulation of cytoplasmic p65 expression at 0.2 to 2 uM incubated for 48 hrs by Western blotting analysis; format: cell-based; conditions: dose 0.2-2 µM
MDA-MB-231 [6] = assay: Inhibition of NF-kappaB signalling pathway in human MDA-MB-231 cells assessed as downregulation of IkappaBalpha phosphorylation at 0.5 to 2 uM incubated for 48 hrs by Western blotting analysis; format: cell-based; conditions: dose 0.5-2 µM
MDA-MB-468 [7] = assay: Induction of cell cycle arrest in human MDA-MB-468 cells assessed as increase in accumulation of cells at G2/M phase at 0.2 to 2 uM incubated for 48 hrs by RNase/PI staining based flow cytometric analysis; format: functional; conditions: dose 0.2-2 µM
MDA-MB-231 [8] = assay: Induction of apoptosis in human MDA-MB-231 cells at 0.2 uM incubated for 48 hrs by annexin-V-APC/PI staining based flow cytometric analysis (reference value: 1.81 +/- 0.47 %); format: functional
MDA-MB-231 [9] = assay: Induction of apoptosis in human MDA-MB-231 cells assessed as downregulation of BCL-2 protein expression incubated for 48 hrs by Western blotting analysis; format: functional, cell-based
MDA-MB-231 [10] = assay: Inhibition of NF-kappaB signalling pathway in human MDA-MB-231 cells assessed as downregulation of p65 phosphorylation at 0.5 to 2 uM incubated for 48 hrs by Western blotting analysis; format: cell-based; conditions: dose 0.5-2 µM
4T1 [11] = assay: Antitumor activity against mouse 4T1 cells implanted in Balb/c mouse assessed as inhibition of tumor volume at 10 mg/kg,ip administrated every two days for 20 days; format: functional, organism-based; conditions: time 20.0 day
NIH3T3 = assay: Cytotoxicity against mouse 3T3 cells at 1 uM incubated for 72 hrs by MTT assay; format: toxicity, cell-based; conditions: nih3t3, 72 h
MDA-MB-468 [12] = assay: Induction of cell cycle arrest in human MDA-MB-468 cells assessed as downregulation of Cyclin B1 protein expression incubated for 48 hrs by Western blotting analysis; format: functional, cell-based
MCF7 = assay: Antiproliferative activity against human MCF7 cells assessed as inhibition of cell growth incubated for 72 hrs by MTT assay; format: functional, cell-based; conditions: MCF7, 72 h
MDA-MB-468 [13] = assay: Induction of cell cycle arrest in human MDA-MB-468 cells assessed as downregulation of Cdc25c protein expression incubated for 48 hrs by Western blotting analysis; format: functional, cell-based
MDA-MB-231 [14] = assay: Antiproliferative activity against human MDA-MB-231 cells assessed as inhibition of cell growth incubated for 72 hrs by MTT assay; format: functional, cell-based; conditions: MDA-MB-231, 72 h

IC50 (MCF7): 3.84 µM
IC50 (MDA-MB-231 [14]): 0.89 µM
SMILES: C=C1C(=O)O[C@H]2[C@H]1CC/C(COc1ccc(-c3cc(=S)ss3)cc1)=C\CC[C@@]1(C)O[C@@H]21
Activity (MDA-MB-231 [1]): Dose-Dependent Effect
Activity (MDA-MB-468 [2]): Dose-Dependent Effect
Activity (MDA-MB-231 [3]): 2.3%
Activity (4T1 [4]): Active
inhibition (MDA-MB-231 [5]): Active
inhibition (MDA-MB-231 [6]): Active
Activity (MDA-MB-468 [7]): Active
Activity (MDA-MB-231 [8]): 2.01%
Activity (MDA-MB-231 [9]): Dose-Dependent Effect
inhibition (MDA-MB-231 [10]): Active
Activity (4T1 [11]): Active
Activity (NIH3T3): Toxic
Activity (MDA-MB-468 [12]): Dose-Dependent Effect
Activity (MDA-MB-468 [13]): Dose-Dependent Effect
